A short description of data set [1]: Drug metabolism in Staphylococcus aureus ATCC 6538 assessed as (1S,2R,18R,19R,22S,25R,28R,40S)-48-[(2S,3R,4S,5S,6R)-3-[(2S,4S,5S,6S)-4-amino-5-hydroxy-4,6-dimethyl-tetrahydropyran-2-yl]oxy-4,5-dihydroxy-6-(hydroxymethyl)tetrahydropyran-2-yl]oxy-22-(2-amino-2-oxo-ethyl)-5,15-dichloro-2,18,32,35,37-pentahydroxy-19-[(4R)-4-isobutyl-3-methyl-5-oxo-imidazolidin-1-yl]-20,23,26,42,44-pentaoxo-7,13-dioxa- …. It is filed as ADME.

The subject of data set [2] is Staphylococcus aureus. As to the kind of experiment: microbe, parasite or virus in culture. Conditions: ATCC 43300.
Description: Antibacterial activity against methicillin-resistant Staphylococcus aureus ATCC 43300 in presence of 8 mg/L HCHO by microdilution method
Data set [3] relates to Bacillus subtilis. Nature of the data set: Antibacterial activity against Bacillus subtilis ATCC 6051 incubated for 24 hrs by microdilution method. In kind it is functional. (In general: Dilution methods test growth across graded concentrations, often in twofold steps.)
The subject of data set [4] is Staphylococcus aureus. Nature of the data set: microbe, parasite or virus in culture. The settings on record: ATCC 6538.
Description: Antibacterial activity against Staphylococcus aureus ATCC 6538 in presence of 8 mg/L HCHO by microdilution method
Data set [5] deals with Staphylococcus aureus. As to the kind of experiment: microbe, parasite or virus in culture. The settings on record: ATCC 6538. This is another data set of the same source.
Description: Antibacterial activity against Staphylococcus aureus ATCC 6538 in presence of 4 mg/L HCHO by microdilution method
The test system of data set [6] is Staphylococcus aureus. Nature of the data set: Bactericidal activity against Staphylococcus aureus ATCC 6538 incubated for 24 hrs by microdilution method. In kind it is functional.
Data set [7] deals with Staphylococcus aureus. As to the kind of experiment: microbe, parasite or virus in culture. Conditions: ATCC 43300. This is another data set of the same source.
Description: Antibacterial activity against methicillin-resistant Staphylococcus aureus ATCC 43300 in presence of 4 mg/L HCHO by microdilution method
Data set [8] is described as follows: Chemical reactivity of compound in formaldehyde assessed as (1S,2R,18R,19R,22S,25R,28R,40S)-48-[(2S,3R,4S,5S,6R)-3-[(2S,4S,5S,6S)-4-amino-5-hydroxy-4,6-dimethyl-tetrahydropyran-2-yl]oxy-4,5-dihydroxy-6-(hydroxymethyl)tetrahydropyran-2-yl]oxy-22-(2-amino-2-oxo-ethyl)-5,15-dichloro-2,18,32,35,37-pentahydroxy-19-[(4R)-4-isobutyl-3-methyl-5-oxo-imidazolidin-1-yl]-20,23,26,42,44-pentaoxo-7,13-dioxa-21, …. In kind it is physicochemical.

Data set [9] is described as follows: Chemical reactivity of compound in acetaldehyde assessed as (1S,2R,18R,19R,22S,25R,28R,40S)-48-[(2S,3R,4S,5S,6R)-3-[(2S,4S,5S,6S)-4-amino-5-hydroxy-4,6-dimethyl-tetrahydropyran-2-yl]oxy-4,5-dihydroxy-6-(hydroxymethyl)tetrahydropyran-2-yl]oxy-22-(2-amino-2-oxo-ethyl)-5,15-dichloro-2,18,32,35,37-pentahydroxy-19-[(2R,4R)-4-isobutyl-2,3-dimethyl-5-oxo-imidazolidin-1-yl]-20,23,26,42,44-pentaoxo-7,13-di …. In kind it is physicochemical.

Data set [10] deals with Staphylococcus aureus. Nature of the data set: Bactericidal activity against Staphylococcus aureus ATCC 43300 incubated for 24 hrs by microdilution method. It is filed as functional.
Data set [11] deals with Bacillus subtilis. Nature of the data set: Bactericidal activity against Bacillus subtilis ATCC 6051 incubated for 24 hrs by microdilution method. In kind it is functional.
Data set [12] in a line: Chemical reactivity of compound in formaldehyde assessed as (4R,4aR,5aS,12aR)-9-(3-(tert-butyl)-5-oxoimidazolidin-1-yl)-4,7-bis(dimethylamino)-3,10,12,12a-tetrahydroxy-1,11-dioxo-1,4,4a,5,5a,6,11,12a-octahydrotetracene-2-carboxamide formation. In kind it is physicochemical.
For data set [13], the system named is Streptomyces sp. Nature of the data set: Protection against formaldehyde-induced toxicity in Streptomyces sp. OUCMDZ-4982 cultured in Gauze medium assessed as decrease in bacterial growth incubated for 1 hr. In kind it is functional, organism-based.
The subject of data set [14] is Streptomyces sp. As to the kind of experiment: Protection against formaldehyde-induced toxicity in Streptomyces sp. OUCMDZ-4982 cultured in A1 medium assessed as decrease in bacterial growth incubated for 1 hr. It is filed as functional, organism-based.
Data set [15] in a line: Drug metabolism in Staphylococcus aureus ATCC 6538 assessed as 3,3-methylenebis(4-hydroxy-6-methyl-2H-pyran-2-one) formation in presence of 2266E medium by HPLC analysis. In kind it is ADME.
For data set [16], the system named is Streptomyces sp. Nature of the data set: Protection against formaldehyde-induced toxicity in Streptomyces sp. OUCMDZ-4982 cultured in Gauze medium assessed as inhibition of bacterial growth incubated for 1 hr. It is filed as functional, organism-based.

In brackets after ≈: the same amount, converted by molar mass. Activity calls are given as the source filed them.

As to `CN[C@H](CC(C)C)C(=O)N[C@H]1C(=O)N[C@@H](CC(N)=O)C(=O)N[C@H]2C(=O)N[C@H]3C(=O)N[C@H](C(=O)N[C@H](C(=O)O)c4cc(O)cc(O)c4-c4cc3ccc4O)[C@H](O)c3ccc(c(Cl)c3)Oc3cc2cc(c3O[C@@H]2O[C@H](CO)[C@@H](O)[C@H](O)[C@H]2O[C@H]2C[C@](C)(N)[C@H](O)[C@H](C)O2)Oc2ccc(cc2Cl)[C@H]1O` [VANCOMYCIN], the Drug metabolism entry in data set [1] is recorded as “metabolite_detected”. In addition, the MIC in [2] is 16 µg/mL (≈ 11 µM); in [3], 0.5 µg/mL (≈ 0.345 µM); in [4], 16 µg/mL (≈ 11 µM); in data set [5] it was 8 µg/mL (≈ 5.52 µM); in data set [7], 8 µg/mL (≈ 5.52 µM). Besides, the minimal bactericidal concentration (MBC) – broadly, the smallest concentration meeting the test's criterion for killing – in data set [6] stood at 4 µg/mL (≈ 2.76 µM); in data set [10], 4 µg/mL (≈ 2.76 µM); in [11], 0.5 µg/mL (≈ 0.345 µM). For the same compound, the result in data set [8], in data set [9] and in data set [12] was Active.

For the compound `Cc1cc(O)cc(=O)o1` [4-HYDROXY-6-METHYLPYRAN-2-ONE], the result in data set [13] was inactive. Also, the result in data set [14] and in data set [16] was Active. In [15], the Drug metabolism result is “metabolite_detected”.

For the origin of these results see ChEMBL document CHEMBL6092122, “Nonenzymatic Sequestering of Formaldehyde into the Antibiotic Methylene-Bridged Dimer Phaeochromycin F by Streptomyces sp. OUCMDZ-4982 as a Possible Multipronged Chemical Defense Mechanism” (J Nat Prod, 2024).
